Experimental data taken from US11945779B2, “Inhibitors of cancer metastasis through inhibiting migration and invasion of cancer cells” (VSpharmtech, priority 2018, dated 2024).

Key:
Type in all cases: cell-based
[1] = system: human melanoma cell line A375P; test: Lamellipodia formation inhibition (confocal microscope), A375P; details: A375-p, 6 hours, FIG. 9
Description: (§1) A human colon cancer cell line DLD-1, a human pancreatic cancer cell line AsPc-1, a human melanoma cell line A375P, and normal cells MCF10A were each cultured to 1×10^5 cell density on a 35 mm high-m dish plate (ibid GmbH). The cells attached to the plate were washed with phosphate buffered saline (PBS) and then treated with DMSO or CG-618 dissolved in DMSO for 6 hours. After removing the cell culture medium from the plate, the plate was washed two times with PBS and treated with 4% paraformaldehyde dissolved in PBS at room temperature for 10 minutes to immobilize the cells. The plate was washed with PBS once and then treated with 0.2% Triton X-100 at room temperature for 10 minutes to enhance cell permeability. The plate was washed with PBS and treated with 1% BSA dissolved in PBS at room temperature for 1 hour to block non-specific bonds. In order to check the distribution in cells of filament actin (F-actin), phalloidin bound with Alexa Fluor 488, which was specifically bound with F-actin, was treated at room temperature for 15 minutes. The plate was washed with PBS three times and then treated with 2 mg/mL 4′,6′-diamidino-2-phenylindole (DAPAI) dissolved in PBS for two minutes at room temperature to dye the nucleus. The plate was washed with PBS three times and filled with 1 mL PBS. […] The obtained images were analyzed by an analysis program (LSM Version 3.2 software).

[2] = system: normal cells MCF10A; test: Lamellipodia formation (confocal microscope), MCF10A; details: normal cell line MCF-10A, 6 hours, FIG. 9
Description: as §1

[3] = system: normal cells MCF10A; test: Cytotoxicity analysis (WST-1), normal cells MCF10A; details: for Cytotoxicity in normal cells: 1 μM, 5 μM, 10 μM, 48 hours, WST-1, FIG. 2; for Growth of normal cells: FIG. 2
Description: In order to verify cytotoxicity of CG-608 to CG-610 and CG-613 to CG-618 prepared in Examples 1 to 9, human colon cancer cell line DLD-1 cells (ATCC-CCL-221), pancreatic cancer cell line AsPc-1 cells (ATCC-CRL-1682), and normal cells MCF10A (ATCC-CRL-10317) were cultured in an RPMI medium containing 10% bovine fetal serum (FBS) while maintaining 37° C. and 5% CO2, and then the cells were detached using a 0.05% trypsin-EDTA. 4×10^3 cells calculated by a hematocytometer were inoculated in each well of a 96-well plate containing a 10% FBS containing medium and cultured in a 37° C. incubator containing 5% C2.
After 24 hours, the medium of each well was exchanged to a new medium containing a control group (0.1% DMSO) and CG-609 prepared in Example 1 or CG-618 prepared in Example 9 as a representative benproperine derivative at concentrations of 1 μM, 5 μM, and 10 μM. Thereafter, the cells were cultured in an incubator at 37° C. and 5% CO2 for 48 hours. Thereafter, […] of WST-1 (Roche) was added to each well and cultured for 2 hours, and then the absorbance was measured at 450 nm using an ELISA reader (Bio-Rad).

[4] = system: human pancreatic cancer cell line AsPc-1; test: Lamellipodia formation inhibition (confocal microscope), AsPc-1; details: AsPc-1, 6 hours, FIG. 9
Description: as §1

[5] = system: pancreatic cancer cell line AsPc-1; test: Trans-well cancer cell migration inhibition, AsPc-1; details: Homo sapiens, ASPC1; for IC50: Pancreatic cancer cell line AsPc-1, read-out: Concentration inhibiting migration of cancer cells by 50% (IC50 value)
Description: In order to analyze cancer cell migration inhibitory activity of CG-608, CG-609 or CG-618 prepared in Examples 1, 2, or 9, cell migration inhibitory activity was measured using a trans-well by targeting a colon cancer cell line DLD-1 (ATCC-CCL-221), pancreatic cancer cell lines AsPc-1 (ATCC-CCL-1682). CFPAC-1 (ATCC-CCL-1918). Panc-1 (ATCC-CCL-1469), and Miapaca-2 (ATCC-CCL-1420), a skin cancer cell line A375-P (ATCC-CCL-3224), lung cancer cell lines HCC-827 (ATCC-CCL-2868), A549 (ATCC-CCL-185), and NCI-H460 (ATCC-CCL-177), a prostate cancer cell line DU145 (ATCC-HTB-81), a stomach cancer cell line NuGC-3 (JCRB0822), and an ovarian cancer cell line SKOV-3 (ATCC-HTB-77).
First, the number of DLD-1 cells was measured using a hemocytometer in an RPMI medium without FBS. Thereafter, the trans-well was placed on a 24-well plate and 8×10^4 […] of cells were added. In an empty space with the trans-well on the well plate, […] of an RPM medium having 10% FBS containing CG-608, CG-609, or CG-618 was added and cultured in a CO2 incubator at 37° C. for 16 hours. After culture, […] of crystal violet (5 mg/mL of 20% […] was added to each well of the 24-well plate and the trans-well was dyed at room temperature for 30 minutes. The dyed trans-well was washed with PBS and non-migrated cells were wiped off with cotton swabs. The prepared sample was photographed with an inverted microscope mounted with a digital camera (TE 300, Nikon. Japan) and then the number of migrated cells was counted. The degree of inhibiting cell migration was calculated by Equation 1 for a group treated with the sample compared to a control group (DMSO).
In Equation 1, ‘the number of migrated cells treated with sample’ refers to the number of migrated cells measured by treating CG-608 or CG-618 of Example 1, and ‘the number of migrated cells of a control sample’ refers to the number of migrated cells measured by treating only 1% dimethyl sulfoxide (DMSO) instead of the compound.

Row | SMILES | Formation of lamellipodia [1] | Formation of lamellipodia [2] | Cytotoxicity in normal cells [3] | Growth of normal cells [3] | Formation of lamellipodia [4] | IC50 [5] | inhibition at 1 µM ([5]; AsPc-1, 1 μM, FIG. 3)
1 | CC1CCCCN1C(C)COc1ccccc1Cc1ccccc1 (racemic) [CG-618, 1-(1-(2-benzylphenoxy)propan-2-yl)-2-methylpiperidine] | inhibits formation of lamellipodia | has no effect | did not exhibit cytotoxicity | did not inhibit | inhibits formation of lamellipodia | 700 nM | 
2 | C[C@H](COc1ccccc1Cc1ccccc1)N1CCCC[C@@H]1C [CG-609, (S)-1-((R)-1-(2-benzylphenoxy)propan-2-yl)-2-methylpiperidine] |  |  | did not exhibit cytotoxicity | did not inhibit |  | 110 nM | ≥ 50%
